Experimental data from publication PMC10388363, “Novel 1,4-Dihydropyridines as Specific Binders and Activators of SIRT3 Impair Cell Viability and Clonogenicity and Downregulate Hypoxia-Induced Targets in Cancer Cells” (Journal of Medicinal Chemistry, 2023).
Read-outs that look alike come from different tables or passages of the source.

How the values were obtained:
Assay type in all cases: cell-based, human
[1] = tested on: HIF-1α, EPAS-1, and CA-IX protein expression in MDA-MB-231; assay: Western blot of HIF-1α, EPAS-1 and CA-IX in MDA-MB-231 cells under hypoxia; conditions: MDA-MB-231, 50 μM, 48 h, hypoxia
Description: Based on these findings, we decided to assess the ability of the SIRT3 activators 3a–d to impair HIF-1α, EPAS-1, and CA-IX protein expression in CAL-62 (Figure 10A–F) and MDA-MB-231 (Figure 11A–F) cell lines treated with the compounds at 50 μM for 48 h and under hypoxia conditions.
(§1) Breast cancer cell line MDA-MB-231, anaplastic thyroid cancer cell line CAL-62 and human keratinocytes HaCaT were purchased from ATCC and were cultured in RPMI 1640 medium (R0883 Sigma Aldrich-MERCK) (MDA-MB-231 and CAL-62) or DMEM medium (11965092, Gibco) supplemented with 10% fetal bovine serum (Sigma-Aldrich-MERCK, F9665), 2 mM glutamine (G7513; Sigma-Aldrich-MERCK), 100 units/mL penicillin and 0.1 mg/mL streptomycin (P0781; Sigma-Aldrich-MERCK). Adherent cells were detached by Trypsin–EDTA solution (TA049; Sigma-Aldrich-MERCK). Cells were maintained at 37 °C in humidified incubator with 5% CO2. Cells were treated with […] (CoCl2) (Merck; C8661) dissolved in distilled, sterile water for 24 h to induce hypoxia (200 μM). Hypoxic and normoxic cells were also treated with 10/50 μM of the indicated compounds (dissolved in DMSO) for 48 h, maintaining the CoCl2 in the culture medium for hypoxic conditions. SIRT3 inhibitor 3-TYP was dissolved in DMSO and added to a final concentration of 1 μM for 24 and/or 48 h.
The following antibodies were used in this study: ACTB (Merck; A5316), HIF1-α (Cell Signaling; 14179), HIF2/EPAS-1 (Santa Cruz Biotechnology sc-13596), HXKII (Santa Cruz Biotechnology sc-6521), CAIX (Novus Biotechnology NB100-417), SIRT3 (Cell Signaling; 2627S), MnSOD (Abcam ab13533), MnSOD K68 (Abcam ab137037), MnSOD K122 (Abcam ab214675), peroxidase-conjugated AffiniPure Goat Anti-Rabbit IgG (H + L) (Jackson ImmunoResearch; 111-035-003), and peroxidase-conjugated AffiniPure Goat Anti-Mouse IgG (H + L) (Jackson ImmunoResearch; 115-035-062).
Treated and untreated cells were collected and centrifuged at 3000 rpm for 5 min. After removing the supernatant, cells were lysed in 70 μL of lysis buffer containing: 50 mM Tris-Cl (Merck; 93352), 250 mM sodium chloride (NaCl, Merck; S7653), 5 mM ethylenediaminetetraacetic acid (EDTA; Merck; E6758), 0.1% Triton X-100 and 0.1 mM dithiothreitol (Merck; D9163) plus 1 mM phenylmethylsulfonyl fluoride (PMSF, Merck; 93482), protease inhibitor cocktail (PI; Merck; P8340), 1 mM sodium orthovanadate (NA3VO4, Merck; S6508), and 10 mM sodium fluoride (NaF, Merck; 201154) (lysis buffer). After 30 min on ice, samples were centrifuged at 13,000 rpm for 10 min at 4 °C, and the supernatants collected. Protein concentration was determined by the Bradford assay (Bio-Rad; 500-0205). The equivalent of 15 or 50 μg of protein was boiled for 5 min, electrophoresed onto denaturing SDS-PAGE gel, and transferred onto a […] nitrocellulose membrane (Bio-Rad; 162-0115). After blocking with 5% milk, membranes were incubated with the appropriate primary antibody overnight. The next day, after three washes with 0.1% Tween 20 (Merck; P9416) in PBS (PBST) for 30 min at rt, membranes were incubated with the appropriate secondary antibody for 1 h at rt. After three more washes in PBST, the detection of the relevant protein was assessed by enhanced chemiluminescence (Lite Ablot TURBO, Euro-Clone; EMP012001). Densitometric analysis of the bands, relative to ACTB, was performed using ImageJ Software v1.51 (NIH, Bethesda, MD, USA).

[2] = tested on: SNAIL, SLUG, ZEB1, COL1A2, MMP2/9 expression in MDA-MB-231; assay: qRT-PCR of EMT master regulator and ECM genes in MDA-MB-231 cells; conditions: 48 h; for EMT master regulator and ECM gene expression: MDA-MB-231, 10 μM; for SLUG expression / SNAIL, ZEB1, COLLAGEN, and MMP2/9 gene expression / SLUG gene expression / SNAIL, COL1A2, and MMP2/9 expression levels: MDA-MB-231, 50 μM; for SLUG expression / SNAIL, ZEB1, COLLAGEN, and MMP2/9 gene expression: hypoxic conditions (CoCl2); for SLUG gene expression / SNAIL, COL1A2, and MMP2/9 expression levels: normoxia
Description: Afterward, based on the double localization described for SIRT3, which was primarily found into the mitochondria but translocated into the nucleus in stressful conditions,[75] the effects of SIRT3 activators on gene expression regulation were evaluated in MDA-MB-231 cells.
Considering the previously described involvement of hypoxia in EMT induction,[78] we extended our biological study by analyzing the effects of SIRT3 activators on gene expression regulation under hypoxic conditions. Hypoxia induction of EMT was verified by gene expression analysis (upregulation of SNAIL, ZEB1, COLLAGEN, MMPs, and SLUG) after 72 h of treatment with CoCl2. In these experimental conditions, we verified the effectiveness of the previously tested SIRT3 activators 3c and 3d (50 μM, 48 h) in reducing EMT genes expression.
RNAs were extracted by ReliaPrep RNA tissue miniprep system (Promega, Madison, WI, USA) and reverse transcribed with an iScriptTM c-DNA synthesis kit (Bio-Rad Laboratories Inc., Hercules, CA, USA). Real-time (RT-qPCR) analyses were performed on cDNAs that were amplified by the qPCR reaction using GoTaq qPCR Master Mix (Promega, Madison, WI, USA). Relative amounts obtained with the 2(−ΔCt) method were normalized with respect to the housekeeping gene human L32. Statistical analysis was performed with GraphPad Prism 8, and differences in gene expression were considered significant with a p-value <0.05.

MDA-MB-231 cells = assay: Cell viability / cell death, trypan blue exclusion, MDA-MB-231; conditions: for IC50: MDA-MB-231, 48 h, read-out: IC50 reducing cell viability
Description: Afterward, the selected compounds 3a–d were assayed at 50 μM for 24 and 48 h in CAL-62 and MDA-MB-231 cells to assess their ability to impair the cell viability and colony formation in either normoxia or hypoxia-induced condition, the latter obtained by adding a 200 μM cobalt chloride solution, as described in previous reports[69] (Figure 8). Most cancer cells, mainly solid types, are known to have an altered metabolism due to hypoxia, a non-physiological level of oxygen tension, which contributes to therapy resistance by causing cellular quiescence.[70] Moreover, hypoxic cancer cells can induce several factors that lead to cell proliferation and colony formation.[71]
as §1
Cell viability was assessed by the trypan blue exclusion assay. At the end of treatments, cells were harvested and stained with 0,4% trypan blue (Merck; T8154). The cell suspension was applied to a hemocytometer and counted with phase contrast microscopy (NIKON EclipseTE2000U, Nikon Netherlands, Amsterdam, The Netherlands).

[3] = MDA-MB-231, 50 μM, 48 h, hypoxia
[4] = MDA-MB-231, 50 μM, 48 h, normoxia

Compound | EPAS-1 protein levels [1] | HIF-1α protein levels [1] | EMT master regulator and ECM gene expression [2] | SLUG expression [2] | SNAIL, ZEB1, COLLAGEN, and MMP2/9 gene expression [2] | SLUG gene expression [2] | SNAIL, COL1A2, and MMP2/9 expression levels [2] | CA-IX protein expression [1] | IC50 (MDA-MB-231 cells; Homo sapiens, hypoxia) | IC50 (MDA-MB-231 cells; Homo sapiens, normoxia) | viability at 10 µM (MDA-MB-231 cells; Homo sapiens, MDA-MB-231, 10 μM, 48 h, read-out: Cell viability (%) T48) | reduction in cell viability (%) at 50 µM (MDA-MB-231 cells; Homo sapiens, MDA-MB-231, 50 μM, 24 h, normoxia, read-out: viability impairment) | Cell death (%) T48 (MDA-MB-231 cells; MDA-MB-231, 10 μM, 48 h) | reduction viability (MDA-MB-231 cells; [3]) | reduction viability (MDA-MB-231 cells; [4])
CCOC(=O)C1=CN(C(=O)c2ccc(OC)c(OC)c2)C=C(C(=O)OCC)C1c1ccccc1 [Compound 3c, Diethyl 1-(3,4-dimethoxybenzoyl)-4-phenyl-1,4-dihydropyridine-3,5-dicarboxylate] | significantly reduced | significantly reduced | effective even at 10 μM | affected | impair | not significantly affected | reduce | – | – | – | – | – | – | – | –
CCOC(=O)C1=CN(C(=O)c2cc(OC)cc(OC)c2)C=C(C(=O)OCC)C1c1ccccc1 [Compound 3d, Diethyl 1-(3,5-dimethoxybenzoyl)-4-phenyl-1,4-dihydropyridine-3,5-dicarboxylate] | significantly reduced | significantly reduced | effective even at 10 μM | affected | impair | not significantly affected | reduce | most potent | 10.6 µM | 3.64 µM | 36.3% | 34% | 63,6% | 75% | 75%
CCOC(=O)C1=CN(C(=O)c2cccc(OC)c2)C=C(C(=O)OCC)C1c1ccccc1 [Compound 3a, Diethyl 1-(3-methoxybenzoyl)-4-phenyl-1,4-dihydropyridine-3,5-dicarboxylate] | – | – | – | – | – | – | – | – | – | – | – | – | – | 11% | 60%
